# Results from article PMC9304929, “The Cholesterol-Binding Sequence in Monomeric C-Reactive Protein Binds to the SARS-CoV-2 Spike Receptor-Binding Domain and Blocks Interaction With Angiotensin-Converting Enzyme 2” (Frontiers in Immunology, 2022).
# Experiments:
# [1] = tested on: binding of mCRP to the spike RBD; experiment: Peptide competition assay (ELISA) of mCRP binding to spike RBD; set-up: species or system SARS-CoV-2; details: spike RBD-coated wells (2 μg/mL), mCRP at half-saturation concentration with synthetic peptide, mAb 3H12, n = 3
# SARS-CoV-2 spike RBD [2] = experiment: Surface plasmon resonance (SPR) binding assay, spike RBD on CM5 chip
# Experimental: (§1) Surface plasmon resonance (SPR) binding assays were performed using Biacore 8K instrument (Cytiva Life Sciences, Marlborough, MA, USA) in HEPES buffer containing 50 mM HEPES (pH 7.4), 150 mM NaCl, and 0.05% Tween-20 at 25°C. Spike-RBD was diluted to a concentration of 20 μg/mL with 10 mM sodium acetate (pH 5.0) and immobilized on a CM5 sensor chip (Cytiva Life Sciences, Marlborough, MA, USA). The mCRP samples were passed over the sensor chip at a flow rate of 30 μL/min with a concentration gradient from 3.125 nM to 100 nM. The association time was 180 s. A dissociation process was performed for 200 s at a flow rate of 30 μL/min. The dissociation constant (Kd) values were calculated by fitting result curves (subtracted from the control flow value) to a 1:1 Langmuir binding model with Biacore 8K evaluation software.
# [3] = tested on: binding of the spike RBD to ACE2; experiment: SPR competition of spike RBD binding to ACE2; set-up: species or system human; details: fixed spike RBD concentration, different concentrations of mCRP
# Experimental: as §1
# Having confirmed that mCRP can bind to the spike RBD, we further questioned whether mCRP can compete for the binding of the spike RBD to ACE2. […] First, in the spike RBD binding assay with ACE2, the spike RBD concentration was fixed and different concentrations of mCRP were added to test whether mCRP could inhibit the binding of the spike RBD to ACE2.
# [4] = cited from earlier work
# [5] = tested on: binding of the spike RBD to mCRP; set-up: species or system SARS-CoV-2
# [6] = tested on: spike RBD binding to cell surface ACE2 (A549 ACE2+/+ cells); experiment: Inhibition assay of spike-ACE2 interaction in cells (flow cytometry); format: cell-based, human; details: spike RBD 140 nM with ACE2+/+ cells, compound 4°C 30 min, n = 3
# [7] = tested on: immortalized bone marrow-derived macrophages (iBMDM); experiment: Cytokine release from macrophages stimulated with CBS; format: cell-based; details: iBMDM stimulated with different concentrations of CBS, LPS positive control, n = 3
# Experimental: To compare the inhibitory ability of the CBS peptide, different concentrations of the CBS peptide were added to the cell medium and incubated at 4°C for 30 min. After washing, the mixture was incubated for another 30 min with anti-Flag antibody, followed by incubation with a secondary antibody conjugated to Alexa Fluor 488. The inhibitory activity of the CBS peptide and positive control (lomefloxacin) was compared using flow cytometry with Alexa Fluor 488-conjugated spike RBD and phycoerythrin (PE)-conjugated ACE2. […] At the same time, we stimulated macrophages with the CBS peptide and detected the release of pro-inflammatory cytokines TNF-α and IL-6 to verify whether the CBS peptide itself is immunogenic.
# SARS-CoV-2 pseudovirus = details: 50 μM, preliminary results, data not shown
# SARS-CoV-2 spike RBD [8] = experiment: Spike RBD-mCRP binding ELISA; details: for Kd: ELISA, spike RBD-immobilized microtiter wells, detection with mCRP-specific mAb 3H12, n = 3, mean ± S.E.M.
# Experimental: The interactions of the spike-RBD with mCRP or CRP were also examined by enzyme-linked immunosorbent assay (ELISA) using mCRP/CRP-specific mAbs. Briefly, 100 μL of spike-RBD (1μg/mL) in Tris-buffered saline (TBS; 10 mM Tris, 140 mM NaCl, pH 7.4) was added per well to coat in 96-well microplates overnight at 4°C. The wells were then washed three times with TBS containing 0.02% Tween-20 for 5 min and blocked with 1% bovine serum albumin (BSA) in TBS for 1 h at 37°C. Next, mCRP was added and the plates were incubated for 1 h at 37°C. The color was developed by adding tetramethyl benzidine (TMB) to the wells and the color development was stopped with 1 M H2SO4.
molecule,measurement,setting,value
amino acids 35−42 (VCLHFYTE),inhibition of the binding of mCRP to the spike RBD (peptide competition assay),[1],still inhibited
mCRP,binding to the spike RBD (SPR),"SARS-CoV-2 spike RBD [2]; analyte 3.125-100 nM in fluid phase, spike RBD on CM5 chip, HEPES pH 7.4, 25°C",high affinity
same,inhibition of the binding of the spike RBD to ACE2 (SPR),[3],significantly inhibited
same,half-life of blood-borne mCRP,[4],rather short
CBS (VCLHFYTELSSTR),inhibition of the binding of mCRP to the spike RBD (peptide competition assay),[1],competitively inhibited
same,inhibition of the binding of the spike RBD to mCRP (SPR),[5],almost completely inhibited
same,inhibition of the binding of the spike RBD to the cell surface ACE2,[6],inhibit the binding of the spike RBD to the cell surface ACE2 in a concentration-dependent manner
same,release of pro-inflammatory cytokines TNF-α and IL-6,[7],did not induce the release of cytokines
same,inhibition of the invasion of SARS-CoV-2 pseudovirus into Caco-2 cells,SARS-CoV-2 pseudovirus,partially inhibit
pCRP,binding to the spike RBD (ELISA),"SARS-CoV-2 spike RBD [8]; spike RBD-immobilized wells, detection with pCRP-specific mAb 8D8, n = 3",did not bind
amino acids 39−47 (FYTELSSTR),inhibition of the binding of mCRP to the spike RBD (peptide competition assay),[1],lost the ability to inhibit
"amino acids 41−47 (TELSSTR; UniProt P02741 59-65, looked up, fragment)",inhibition of the binding of mCRP to the spike RBD (peptide competition assay),[1],lost the ability to inhibit
ACE2,binding of spike RBD to ACE2 (SPR),SARS-CoV-2 spike RBD [2]; check of biological activity of the spike RBD protein,high affinity
r-mCRP,Kd,SARS-CoV-2 spike RBD [8],24.4 ± 6.48 nM
u-mCRP,Kd,SARS-CoV-2 spike RBD [8],44.9 ± 6.27 nM
"CCn1cc(C(=O)O)c(=O)c2cc(F)c(N3CCNC(C)C3)c(F)c21 (stereo not shown) [lomefloxacin, Lomefloxacin, reference compound]",inhibition of the binding of the spike RBD to the cell surface ACE2,[6],almost completely inhibited
